Test results: patent publication US20100267561A1, “HERBICIDAL PYRIDAZINONE DERIVATIVES” (priority 2007, published 2010)

What was measured:
Experiment in all cases: Test E pre-/postemergence plant response
Type in all cases: in vivo
Details in all cases: scale 0 to 100
[1] = system: common purslane (Portulaca oleracea)
In short: (§1)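 Pre/post herbicide screen; formulation: non-phytotoxic solvent mix + surfactant. Post timing 1–4 leaves (2–18 cm ht). Greenhouse 14–21 d; visual 0 (none) to 100 (complete control) vs controls.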

[2] = system: purple nutsedge (Cyperus rotundus)
In short: as §1

[3] = system: dallisgrass (Paspalum dilatatum)
In short: as §1

[4] = system: green foxtail (Setaria viridis)
In short: as §1

[5] = system: common groundsel (Senecio vulgaris)
In short: as §1

[6] = system: quackgrass (Elytrigia repens)
In short: as §1

[7] = system: surinam grass (Brachiaria decumbens)
In short: as §1

[8] = system: large crabgrass (Digitaria sanguinalis)
In short: as §1

[9] = system: common mallow (Malva sylvestris)
In short: as §1

[10] = system: southern (S.) sandbur (Cenchrus echinatus)
In short: as §1

[11] = system: johnsongrass (Sorghum halepense)
In short: as §1

[12] = system: broadleaf signalgrass (Brachiaria platyphylla)
In short: as §1

Cc1cc(-c2ccc(Cl)cc2)nn1-c1c(OC(=O)C(C)C)cnn(C)c1=O [Compound 34]
65: Plant response rating, Foxtail, Green ([4]; 16 g ai/ha, Preemergence) | Plant response rating, Signalgrass ([12]; 16 g ai/ha, Preemergence)
30: Plant response rating, Quackgrass ([6]; Postemergence, 31 g ai/ha)
85: Plant response rating, Dallisgrass ([3]; 31 g ai/ha, Preemergence) | Plant response rating, Dallisgrass ([3]; 62 g ai/ha, Preemergence) | Plant response rating, Signalgrass ([12]; Postemergence, 16 g ai/ha)
100: Plant response rating, Foxtail, Green ([4]; 62 g ai/ha, Preemergence) | Plant response rating, Surinam Grass ([7]; 31 g ai/ha, Preemergence) | Plant response rating, Surinam Grass ([7]; 62 g ai/ha, Preemergence) | Plant response rating, Surinam Grass ([7]; Postemergence, 31 g ai/ha) | Plant response rating, Surinam Grass ([7]; Postemergence, 62 g ai/ha) | Plant response rating, Crabgrass, Large ([8]; 62 g ai/ha, Preemergence) | Plant response rating, Crabgrass, Large ([8]; Postemergence, 31 g ai/ha) | Plant response rating, Crabgrass, Large ([8]; Postemergence, 62 g ai/ha) | Plant response rating, Sandbur, S. ([10]; 62 g ai/ha, Preemergence) | Plant response rating, Sandbur, S. ([10]; Postemergence, 62 g ai/ha) | Plant response rating, Johnsongrass ([11]; Postemergence, 62 g ai/ha) | Plant response rating, Signalgrass ([12]; 62 g ai/ha, Preemergence) | Plant response rating, Signalgrass ([12]; Postemergence, 62 g ai/ha)
95: Plant response rating, Foxtail, Green ([4]; Postemergence, 31 g ai/ha) | Plant response rating, Signalgrass ([12]; Postemergence, 31 g ai/ha)
75: Plant response rating, Foxtail, Green ([4]; 31 g ai/ha, Preemergence) | Plant response rating, Foxtail, Green ([4]; Postemergence, 16 g ai/ha) | Plant response rating, Crabgrass, Large ([8]; Postemergence, 16 g ai/ha) | Plant response rating, Sandbur, S. ([10]; 16 g ai/ha, Preemergence) | Plant response rating, Sandbur, S. ([10]; Postemergence, 8 g ai/ha) | Plant response rating, Sandbur, S. ([10]; Postemergence, 16 g ai/ha) | Plant response rating, Signalgrass ([12]; Postemergence, 8 g ai/ha)
90: Plant response rating, Surinam Grass ([7]; Postemergence, 8 g ai/ha) | Plant response rating, Sandbur, S. ([10]; 31 g ai/ha, Preemergence) | Plant response rating, Sandbur, S. ([10]; Postemergence, 31 g ai/ha) | Plant response rating, Johnsongrass ([11]; 31 g ai/ha, Preemergence) | Plant response rating, Johnsongrass ([11]; 62 g ai/ha, Preemergence) | Plant response rating, Signalgrass ([12]; 31 g ai/ha, Preemergence)
50: Plant response rating, Dallisgrass ([3]; 16 g ai/ha, Preemergence) | Plant response rating, Foxtail, Green ([4]; Postemergence, 8 g ai/ha) | Plant response rating, Quackgrass ([6]; 31 g ai/ha, Preemergence) | Plant response rating, Crabgrass, Large ([8]; 31 g ai/ha, Preemergence) | Plant response rating, Johnsongrass ([11]; 16 g ai/ha, Preemergence)
35: Plant response rating, Nutsedge, Purple ([2]; 62 g ai/ha, Preemergence)
40: Plant response rating, Quackgrass ([6]; Postemergence, 62 g ai/ha)
10: Plant response rating, Dallisgrass ([3]; Postemergence, 8 g ai/ha) | Plant response rating, Johnsongrass ([11]; Postemergence, 8 g ai/ha)
80: Plant response rating, Johnsongrass ([11]; Postemergence, 16 g ai/ha)
20: Plant response rating, Nutsedge, Purple ([2]; 31 g ai/ha, Preemergence) | Plant response rating, Dallisgrass ([3]; Postemergence, 16 g ai/ha) | Plant response rating, Dallisgrass ([3]; Postemergence, 31 g ai/ha) | Plant response rating, Quackgrass ([6]; 16 g ai/ha, Preemergence)
98: Plant response rating, Foxtail, Green ([4]; Postemergence, 62 g ai/ha) | Plant response rating, Surinam Grass ([7]; 16 g ai/ha, Preemergence) | Plant response rating, Surinam Grass ([7]; Postemergence, 16 g ai/ha) | Plant response rating, Johnsongrass ([11]; Postemergence, 31 g ai/ha)
0: Plant response rating, Purslane ([1]; 16 g ai/ha, Preemergence) | Plant response rating, Purslane ([1]; 31 g ai/ha, Preemergence) | Plant response rating, Purslane ([1]; Postemergence, 8 g ai/ha) | Plant response rating, Purslane ([1]; Postemergence, 16 g ai/ha) | Plant response rating, Purslane ([1]; Postemergence, 31 g ai/ha) | Plant response rating, Purslane ([1]; Postemergence, 62 g ai/ha) | Plant response rating, Nutsedge, Purple ([2]; 16 g ai/ha, Preemergence) | Plant response rating, Nutsedge, Purple ([2]; Postemergence, 8 g ai/ha) | Plant response rating, Nutsedge, Purple ([2]; Postemergence, 16 g ai/ha) | Plant response rating, Nutsedge, Purple ([2]; Postemergence, 31 g ai/ha) | Plant response rating, Nutsedge, Purple ([2]; Postemergence, 62 g ai/ha) | Plant response rating, Groundsel ([5]; 16 g ai/ha, Preemergence) | Plant response rating, Groundsel ([5]; 31 g ai/ha, Preemergence) | Plant response rating, Groundsel ([5]; 62 g ai/ha, Preemergence) | Plant response rating, Groundsel ([5]; Postemergence, 8 g ai/ha) | Plant response rating, Groundsel ([5]; Postemergence, 16 g ai/ha) | Plant response rating, Groundsel ([5]; Postemergence, 31 g ai/ha) | Plant response rating, Groundsel ([5]; Postemergence, 62 g ai/ha) | Plant response rating, Quackgrass ([6]; Postemergence, 8 g ai/ha) | Plant response rating, Quackgrass ([6]; Postemergence, 16 g ai/ha) | Plant response rating, Mallow ([9]; 16 g ai/ha, Preemergence) | Plant response rating, Mallow ([9]; 31 g ai/ha, Preemergence) | Plant response rating, Mallow ([9]; 62 g ai/ha, Preemergence) | Plant response rating, Mallow ([9]; Postemergence, 8 g ai/ha) | Plant response rating, Mallow ([9]; Postemergence, 16 g ai/ha) | Plant response rating, Mallow ([9]; Postemergence, 31 g ai/ha) | Plant response rating, Mallow ([9]; Postemergence, 62 g ai/ha)
70: Plant response rating, Dallisgrass ([3]; Postemergence, 62 g ai/ha) | Plant response rating, Quackgrass ([6]; 62 g ai/ha, Preemergence)
60: Plant response rating, Crabgrass, Large ([8]; Postemergence, 8 g ai/ha)
